Peptide text beside a SMILES is read from it. * marks the point of attachment. Cbz = O=C(OCc1ccccc1)*
Experiments:
retinal bipolar cells = test: AAV-mediated transduction efficiency (mCherry expression) in retinal bipolar cells after intravitreal co-injection of rAAV2 vector with proteasome inhibitor; type: in vivo, C57BL/6J mice; settings: for transduction efficiency in retinal bipolar cells: about one month after virus injection; for expression (fluorescence intensity) of mCherry in bipolar cells: intravitreal
Excerpt: FIG. 1A-B is a series of photographs and a graph depicting the effects of proteasomes on the AAV-mediated expression of transgene (mCherry) in retinal bipolar cells one month after virus injection. FIG. 1A: Representative images of virus transduced retinal bipolar cells. […] DOX: doxorubicin; Acla: Aclarubicin; MG: MG132. FIG. 1B. Statistical data for evaluating the fluorescence intensity of mCherry in bipolar cells one month after virus injection.
FIG. 2A-B is a series of photographs and a graph depicting the effects of DOX on the AAV-mediated expression of transgene (mCherry) in retinal bipolar cells three months after virus injection. FIG. 2A. Representative images of virus transduced retinal bipolar cells three months after virus injection. Virus vectors were co-injected with DOX at different concentrations. FIG. 2B. Statistical data for evaluating the fluorescence intensity of mCherry in bipolar cells three months after virus injection.

retinal ganglion cells = test: Density of retinal ganglion cells (DAPI staining) after virus injection with and without DOX; type: in vivo, C57BL/6J mice; settings: three months after virus injection; 300 μM and 500 μM DOX
Excerpt: FIG. 4A-B is a series of photographs and a graph, depicting the effects of DOX on retinal ganglion cells. FIG. 4A. Representative images for evaluating the density of retinal ganglion cells with DAPI staining after virus transduction in bipolar cells with and without DOX at different concentrations. Animals were euthanized one and three months after virus injection. FIG. 4B. Statistical data for evaluating the density of retinal ganglion cells one and three months after virus injection with and without doxorubicin (DOX).

**Q.** `COc1cccc2c1C(=O)c1c(O)c3c(c(O)c1C2=O)C[C@@](O)(C(=O)CO)C[C@@H]3O[C@H]1C[C@H](N)[C@H](O)[C@H](C)O1` [doxorubicin] was tested. Which “transduction efficiency in retinal bipolar cells” value (retinal bipolar cells; doxorubicin from 200 μM to 800 μM) did it give?
**A.** concentration-dependent increase

**Q.** What about the “optimal concentration to enhance the AAV transduction efficiency” value (retinal bipolar cells; intravitreal co-injection with rAAV2 vector, mice) of the same molecule?
**A.** 500 µM

**Q.** What about the “expression (fluorescence intensity) of mCherry in bipolar cells” value (retinal bipolar cells; one month after virus injection, co-injection of DOX at concentrations ≧300 μM, mice) of the same molecule?
**A.** significantly increased

**Q.** What about the “expression (fluorescence intensity) of mCherry in bipolar cells” value (retinal bipolar cells; three months after virus injection, co-injection of DOX at concentrations ≧200 μM, mice) of the same molecule?
**A.** significantly increased

**Q.** What about the “retinal ganglion cell density vs control” value (retinal ganglion cells) of the same molecule?
**A.** statistically lower than that of control

**Q.** With `CC[C@@]1(O)C[C@H](O[C@H]2C[C@H](N(C)C)[C@H](O[C@H]3C[C@H](O)[C@H](O[C@H]4CCC(=O)[C@H](C)O4)[C@H](C)O3)[C@H](C)O2)c2c(cc3c(c2O)C(=O)c2c(O)cccc2C3=O)[C@H]1C(=O)OC` [aclarubicin] as the molecule, how does the “transduction efficiency in retinal bipolar cells” value (retinal bipolar cells; aclarubicin 50 μM, 100 μM) read?
**A.** not found to enhance the transduction efficiency

**Q.** For `CC(C)C[C@@H](C=O)NC(=O)[C@H](CC(C)C)NC(=O)[C@H](CC(C)C)NC(=O)OCc1ccccc1` [MG132] (Cbz-Leu-Leu-Leu-aldehyde), which “transduction efficiency in retinal bipolar cells” value (retinal bipolar cells; MG132 100 μM, 200 μM, 500 μM) is on record?
**A.** not found to enhance the transduction efficiency
